pEC50, pIC50: −log10 of the molar value.
Tests used:
[1] = target: Ribosomal protein S6 kinase alpha-5 (Homo sapiens) (UniProt O75582); assay: Inhibition of MSK1 (unknown origin) at 1 uM
[2] = target: SRSF protein kinase 1 (Homo sapiens) (UniProt Q96SB4); assay: Inhibition of SRPK1 (unknown origin) at 1 uM
[3] = target: Tyrosine-protein kinase receptor TYRO3 (Homo sapiens) (UniProt Q06418); assay: Inhibition of Rse (unknown origin) at 1 uM
[4] = target: Serine/threonine-protein kinase Sgk1 (Homo sapiens) (UniProt O00141); assay: Inhibition of SGK1 (unknown origin) at 1 uM
[5] = target: Phosphatidylinositol 4,5-bisphosphate 3-kinase catalytic subunit alpha isoform (Homo sapiens) (UniProt P42336); assay: Inhibition of PI3KA (unknown origin) at 1 uM
[6] = target: Dual specificity protein kinase CLK1 (Homo sapiens) (UniProt P49759); assay: Inhibition of CLK1 (unknown origin) at 1 uM
[7] = target: Mitogen-activated protein kinase 9 (Homo sapiens) (UniProt P45984); assay: Inhibition of JNK2 (unknown origin) at 1 uM
[8] = target: Mitogen-activated protein kinase kinase kinase 5 (Homo sapiens) (UniProt Q99683); assay: Inhibition of ASK1 (unknown origin) at 1 uM
[9] = target: Casein kinase I isoform gamma-2 (Homo sapiens) (UniProt P78368); assay: Inhibition of CK1 gamma2 (unknown origin) at 1 uM
[10] = target: Dual specificity protein kinase CLK2 (Homo sapiens) (UniProt P49760); assay: Inhibition of CLK2 (unknown origin) at 1 uM
Salmonella typhimurium [11] = assay: Genotoxicity in Salmonella typhimurium TA98 by Ames test in presence of S9 fraction; assay type: toxicity, organism-based; settings: salmonella enterica subsp. enterica serovar typhimurium
[12] = target: PAS domain-containing serine/threonine-protein kinase (Homo sapiens) (UniProt Q96RG2); assay: Inhibition of PASK (unknown origin) at 1 uM
[13] = target: Vascular endothelial growth factor receptor 3 (Homo sapiens) (UniProt P35916); assay: Inhibition of Flt4 (unknown origin) at 1 uM
[14] = target: Serine/threonine-protein kinase Nek9 (Homo sapiens) (UniProt Q8TD19); assay: Inhibition of NEK9 (unknown origin) at 1 uM
Liver microsome [15] = assay: Intrinsic clearance in human liver microsomes at 1 uM by LC-MS/MS analysis in absence of NADPH; assay type: ADME
[16] = target: Mitogen-activated protein kinase kinase kinase kinase 2 (GCK) (Homo sapiens) (UniProt Q12851); assay: Inhibition of GCK (unknown origin) at 1 uM
Blood = assay: Inhibition of IgE-stimulated CD63 expression in human whole blood
[17] = target: Inhibitor of nuclear factor kappa-B kinase subunit alpha (Homo sapiens) (UniProt O15111); assay: Inhibition of IKK alpha (unknown origin) at 1 uM
[18] = target: Ephrin type-A receptor 3 (Homo sapiens) (UniProt P29320); assay: Inhibition of EphA3 (unknown origin) at 1 uM
Liver microsome [19] = assay: Intrinsic clearance in human liver microsomes at 1 uM by LC-MS/MS analysis in presence of NADPH; assay type: ADME
[20] = target: Casein kinase I isoform gamma-1 (Homo sapiens) (UniProt Q9HCP0); assay: Inhibition of CK1 gamma1 (unknown origin) at 1 uM
[21] = target: Rho-associated protein kinase 1 (Homo sapiens) (UniProt Q13464); assay: Inhibition of ROCK1 (unknown origin) at 1 uM
[22] = target: MAP/microtubule affinity-regulating kinase 3 (Homo sapiens) (UniProt P27448); assay: Inhibition of MARK3 (unknown origin) at 1 uM
[23] = target: MAP kinase-activated protein kinase 2 (Homo sapiens) (UniProt P49137); assay: Inhibition of MAPKAPK2 (unknown origin) at 1 uM
[24] = target: Serine/threonine-protein kinase PLK3 (Homo sapiens) (UniProt Q9H4B4); assay: Inhibition of PLK3 (unknown origin) at 1 uM
[25] = target: CDK9/cyclin T1 (Homo sapiens) (UniProt O60563+P50750); assay: Inhibition of CDK9/cyclinT1 (unknown origin) at 1 uM; assay type: protein-complex assay
[26] = target: Vascular endothelial growth factor receptor 1 (Homo sapiens) (UniProt P17948); assay: Inhibition of Flt1 (unknown origin) at 1 uM
[27] = target: Activin receptor type-2B (Homo sapiens) (UniProt Q13705); assay: Inhibition of ACVR2B (unknown origin) at 1 uM
[28] = target: Serine/threonine-protein kinase 16 (Homo sapiens) (UniProt O75716); assay: Inhibition of STK16 (unknown origin) at 1 uM
[29] = target: Beta-adrenergic receptor kinase 1 (Homo sapiens) (UniProt P25098); assay: Inhibition of GRK2 (unknown origin) at 1 uM
[30] = target: Cyclin-dependent kinase 7/ cyclin H (Homo sapiens) (UniProt P51946+P50613); assay: Inhibition of CDK7/cyclinH (unknown origin) at 1 uM; assay type: protein-complex assay
Monocyte = assay: Inhibition of IC-induced TNF-alpha release in human monocytes
[31] = target: Mitogen-activated protein kinase kinase kinase 8 (Homo sapiens) (UniProt P41279); assay: Inhibition of Cot (unknown origin) at 1 uM
[32] = target: Ephrin type-A receptor 7 (Homo sapiens) (UniProt Q15375); assay: Inhibition of EphA7 (unknown origin) at 1 uM
[33] = target: Homeodomain-interacting protein kinase 4 (Homo sapiens) (UniProt Q8NE63); assay: Inhibition of HIPK4 (unknown origin) at 1 uM
[34] = target: Serine/threonine-protein kinase Nek1 (Homo sapiens) (UniProt Q96PY6); assay: Inhibition of NEK1 (unknown origin) at 1 uM
[35] = target: Maternal embryonic leucine zipper kinase (Homo sapiens, UniProt Q14680); assay: Inhibition of MELK (unknown origin) at 1 uM
[36] = target: Calcium/calmodulin-dependent protein kinase type II subunit alpha (Homo sapiens) (UniProt Q9UQM7); assay: Inhibition of CamK2 alpha (unknown origin) at 1 uM
[37] = target: Leucine-rich repeat serine/threonine-protein kinase 2 (Homo sapiens) (UniProt Q5S007); assay: Inhibition of LRRK2 (unknown origin) at 1 uM
[38] = target: Dual specificity mitogen-activated protein kinase kinase 1 (Homo sapiens) (UniProt Q02750); assay: Inhibition of MEK1 (unknown origin) at 1 uM
[39] = target: Ephrin type-A receptor 8 (Homo sapiens) (UniProt P29322); assay: Inhibition of EphA8 (unknown origin) at 1 uM
[40] = target: NUAK family SNF1-like kinase 1 (Homo sapiens) (UniProt O60285); assay: Inhibition of ARK5 (unknown origin) at 1 uM
Salmonella typhimurium [41] = assay: Genotoxicity in Salmonella typhimurium TA100 by Ames test in absence of S9 fraction; assay type: toxicity, organism-based; settings: salmonella enterica subsp. enterica serovar typhimurium
[42] = target: Mitogen-activated protein kinase kinase kinase 2 (Homo sapiens) (UniProt Q9Y2U5); assay: Inhibition of MEKK2 (unknown origin) at 1 uM
[43] = target: Tyrosine-protein kinase Fgr (Homo sapiens, UniProt P09769); assay: Inhibition of FGR (unknown origin)

Sequence of Mitogen-activated protein kinase kinase kinase kinase 2 (GCK) (Homo sapiens) (Q12851 whole entry, looked up): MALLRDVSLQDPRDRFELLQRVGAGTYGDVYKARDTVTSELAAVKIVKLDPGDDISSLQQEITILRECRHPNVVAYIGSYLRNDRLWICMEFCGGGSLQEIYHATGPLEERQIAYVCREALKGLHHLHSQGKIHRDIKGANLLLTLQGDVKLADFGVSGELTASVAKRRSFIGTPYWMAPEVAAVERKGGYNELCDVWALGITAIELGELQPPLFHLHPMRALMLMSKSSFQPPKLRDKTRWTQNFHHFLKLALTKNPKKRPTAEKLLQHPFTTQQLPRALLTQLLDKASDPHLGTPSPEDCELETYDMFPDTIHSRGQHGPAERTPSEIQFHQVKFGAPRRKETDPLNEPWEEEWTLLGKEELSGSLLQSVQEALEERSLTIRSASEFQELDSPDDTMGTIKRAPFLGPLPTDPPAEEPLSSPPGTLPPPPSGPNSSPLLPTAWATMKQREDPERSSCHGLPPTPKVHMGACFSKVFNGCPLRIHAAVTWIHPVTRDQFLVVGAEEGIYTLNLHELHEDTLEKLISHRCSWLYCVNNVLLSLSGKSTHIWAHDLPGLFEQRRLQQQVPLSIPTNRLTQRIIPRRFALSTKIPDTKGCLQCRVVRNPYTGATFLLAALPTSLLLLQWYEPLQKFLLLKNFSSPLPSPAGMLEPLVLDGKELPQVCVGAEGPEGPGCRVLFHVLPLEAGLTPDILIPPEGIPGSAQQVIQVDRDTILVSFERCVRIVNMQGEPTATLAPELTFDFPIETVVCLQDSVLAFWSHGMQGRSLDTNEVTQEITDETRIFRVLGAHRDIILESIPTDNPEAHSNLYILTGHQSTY
Sequence of Ribosomal protein S6 kinase alpha-5 (Homo sapiens) (O75582 whole entry, looked up): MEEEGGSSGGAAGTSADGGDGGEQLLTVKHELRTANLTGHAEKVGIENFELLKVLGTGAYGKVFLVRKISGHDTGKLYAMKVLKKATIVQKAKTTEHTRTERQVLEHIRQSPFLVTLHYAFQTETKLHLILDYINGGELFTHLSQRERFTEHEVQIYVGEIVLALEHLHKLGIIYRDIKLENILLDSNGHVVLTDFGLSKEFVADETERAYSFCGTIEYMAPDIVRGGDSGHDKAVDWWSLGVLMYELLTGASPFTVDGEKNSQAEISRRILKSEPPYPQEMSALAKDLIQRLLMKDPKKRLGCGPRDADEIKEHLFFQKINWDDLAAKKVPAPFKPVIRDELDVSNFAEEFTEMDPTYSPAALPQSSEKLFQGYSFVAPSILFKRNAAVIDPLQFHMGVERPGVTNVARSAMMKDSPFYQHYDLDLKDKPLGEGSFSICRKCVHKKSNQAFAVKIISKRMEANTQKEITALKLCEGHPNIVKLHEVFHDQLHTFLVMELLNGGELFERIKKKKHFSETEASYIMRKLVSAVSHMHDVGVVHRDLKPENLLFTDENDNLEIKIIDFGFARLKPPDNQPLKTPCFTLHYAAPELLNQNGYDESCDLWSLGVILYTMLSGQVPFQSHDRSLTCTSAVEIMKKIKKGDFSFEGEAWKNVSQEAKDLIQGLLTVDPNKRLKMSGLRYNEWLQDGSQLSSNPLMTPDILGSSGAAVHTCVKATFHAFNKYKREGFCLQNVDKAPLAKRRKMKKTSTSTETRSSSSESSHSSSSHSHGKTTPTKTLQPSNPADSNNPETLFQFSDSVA
Sequence of Mitogen-activated protein kinase kinase kinase 8 (Homo sapiens) (P41279 whole entry): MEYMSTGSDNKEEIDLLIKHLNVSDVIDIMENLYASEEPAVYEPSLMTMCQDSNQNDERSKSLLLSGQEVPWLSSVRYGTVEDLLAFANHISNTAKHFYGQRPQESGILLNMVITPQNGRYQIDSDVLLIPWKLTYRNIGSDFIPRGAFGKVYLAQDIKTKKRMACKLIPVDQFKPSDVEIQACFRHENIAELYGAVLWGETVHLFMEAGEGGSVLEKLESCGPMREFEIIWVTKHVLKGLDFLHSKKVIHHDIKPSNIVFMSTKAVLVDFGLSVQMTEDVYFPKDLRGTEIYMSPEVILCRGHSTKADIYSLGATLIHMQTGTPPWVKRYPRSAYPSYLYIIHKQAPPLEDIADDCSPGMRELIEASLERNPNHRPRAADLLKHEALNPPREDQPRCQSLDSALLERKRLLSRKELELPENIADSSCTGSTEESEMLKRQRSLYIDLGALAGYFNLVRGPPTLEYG
Sequence of Casein kinase I isoform gamma-2 (Homo sapiens) (P78368 whole entry, looked up, canonical isoform): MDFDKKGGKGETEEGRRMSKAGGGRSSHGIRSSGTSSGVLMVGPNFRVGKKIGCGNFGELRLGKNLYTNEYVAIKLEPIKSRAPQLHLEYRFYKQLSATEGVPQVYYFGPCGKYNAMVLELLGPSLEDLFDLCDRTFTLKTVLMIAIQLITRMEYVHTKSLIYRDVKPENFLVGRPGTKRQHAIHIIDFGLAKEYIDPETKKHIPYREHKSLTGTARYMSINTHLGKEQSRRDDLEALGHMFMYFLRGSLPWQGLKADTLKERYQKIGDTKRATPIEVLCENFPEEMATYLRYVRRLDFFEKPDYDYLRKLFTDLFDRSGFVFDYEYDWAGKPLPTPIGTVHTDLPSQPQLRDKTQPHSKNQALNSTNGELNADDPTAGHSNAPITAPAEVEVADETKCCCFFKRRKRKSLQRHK
Sequence of MAP kinase-activated protein kinase 2 (Homo sapiens) (P49137 whole entry, looked up): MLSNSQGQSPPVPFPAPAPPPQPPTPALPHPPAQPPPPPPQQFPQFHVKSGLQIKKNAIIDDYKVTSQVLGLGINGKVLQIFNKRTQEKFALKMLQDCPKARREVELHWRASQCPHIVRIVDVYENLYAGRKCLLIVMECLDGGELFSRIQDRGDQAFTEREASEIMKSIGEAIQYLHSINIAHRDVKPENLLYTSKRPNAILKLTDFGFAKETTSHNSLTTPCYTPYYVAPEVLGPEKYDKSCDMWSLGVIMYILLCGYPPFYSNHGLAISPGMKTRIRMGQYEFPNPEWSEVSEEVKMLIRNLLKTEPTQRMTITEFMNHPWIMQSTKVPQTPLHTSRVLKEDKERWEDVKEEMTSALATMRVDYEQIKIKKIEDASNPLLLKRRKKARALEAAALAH
Sequence of Phosphatidylinositol 4,5-bisphosphate 3-kinase catalytic subunit alpha isoform (Homo sapiens) (P42336 whole entry, canonical isoform): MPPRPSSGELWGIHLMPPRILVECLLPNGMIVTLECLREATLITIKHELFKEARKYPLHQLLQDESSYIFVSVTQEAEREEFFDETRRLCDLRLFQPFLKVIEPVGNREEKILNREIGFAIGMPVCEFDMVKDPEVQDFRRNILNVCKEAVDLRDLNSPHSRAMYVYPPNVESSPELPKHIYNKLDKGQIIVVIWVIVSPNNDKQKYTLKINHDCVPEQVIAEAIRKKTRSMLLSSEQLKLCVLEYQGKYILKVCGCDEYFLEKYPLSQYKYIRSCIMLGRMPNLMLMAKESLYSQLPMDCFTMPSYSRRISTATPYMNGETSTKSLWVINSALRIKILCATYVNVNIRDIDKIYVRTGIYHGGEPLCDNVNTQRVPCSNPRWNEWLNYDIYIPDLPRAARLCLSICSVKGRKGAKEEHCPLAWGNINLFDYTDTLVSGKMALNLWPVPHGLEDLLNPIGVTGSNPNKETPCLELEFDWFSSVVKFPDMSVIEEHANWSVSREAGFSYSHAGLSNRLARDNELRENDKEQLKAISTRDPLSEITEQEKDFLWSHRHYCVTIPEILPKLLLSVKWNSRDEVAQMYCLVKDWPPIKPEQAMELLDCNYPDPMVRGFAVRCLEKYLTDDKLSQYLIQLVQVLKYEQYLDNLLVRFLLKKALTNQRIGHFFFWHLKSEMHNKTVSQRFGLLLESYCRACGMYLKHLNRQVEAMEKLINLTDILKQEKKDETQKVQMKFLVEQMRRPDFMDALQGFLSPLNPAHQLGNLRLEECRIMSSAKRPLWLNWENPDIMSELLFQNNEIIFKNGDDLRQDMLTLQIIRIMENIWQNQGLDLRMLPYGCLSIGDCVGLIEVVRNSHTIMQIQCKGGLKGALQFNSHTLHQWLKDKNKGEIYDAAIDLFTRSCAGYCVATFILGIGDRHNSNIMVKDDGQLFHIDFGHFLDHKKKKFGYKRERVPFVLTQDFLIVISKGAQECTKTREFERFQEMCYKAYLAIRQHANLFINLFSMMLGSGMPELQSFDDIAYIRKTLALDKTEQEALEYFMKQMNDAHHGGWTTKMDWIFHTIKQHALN
Sequence of Serine/threonine-protein kinase PLK3 (Homo sapiens) (Q9H4B4 whole entry, looked up): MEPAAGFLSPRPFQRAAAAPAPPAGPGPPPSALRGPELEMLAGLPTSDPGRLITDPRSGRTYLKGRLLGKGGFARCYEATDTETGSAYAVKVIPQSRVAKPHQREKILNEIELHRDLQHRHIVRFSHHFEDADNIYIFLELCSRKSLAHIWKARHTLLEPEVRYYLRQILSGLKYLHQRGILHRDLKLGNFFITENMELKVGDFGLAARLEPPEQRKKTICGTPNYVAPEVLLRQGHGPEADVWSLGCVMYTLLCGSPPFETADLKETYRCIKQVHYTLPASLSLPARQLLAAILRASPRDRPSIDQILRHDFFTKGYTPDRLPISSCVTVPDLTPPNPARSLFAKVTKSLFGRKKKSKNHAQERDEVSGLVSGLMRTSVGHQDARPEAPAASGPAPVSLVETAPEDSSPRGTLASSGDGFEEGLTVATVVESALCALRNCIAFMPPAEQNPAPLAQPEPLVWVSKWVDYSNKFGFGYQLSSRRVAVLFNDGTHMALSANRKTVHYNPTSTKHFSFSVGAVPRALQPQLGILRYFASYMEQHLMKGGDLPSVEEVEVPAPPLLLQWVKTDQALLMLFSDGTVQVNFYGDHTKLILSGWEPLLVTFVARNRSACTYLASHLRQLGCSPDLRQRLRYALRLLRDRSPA
Sequence of Serine/threonine-protein kinase Sgk1 (Homo sapiens) (O00141 whole entry, canonical isoform): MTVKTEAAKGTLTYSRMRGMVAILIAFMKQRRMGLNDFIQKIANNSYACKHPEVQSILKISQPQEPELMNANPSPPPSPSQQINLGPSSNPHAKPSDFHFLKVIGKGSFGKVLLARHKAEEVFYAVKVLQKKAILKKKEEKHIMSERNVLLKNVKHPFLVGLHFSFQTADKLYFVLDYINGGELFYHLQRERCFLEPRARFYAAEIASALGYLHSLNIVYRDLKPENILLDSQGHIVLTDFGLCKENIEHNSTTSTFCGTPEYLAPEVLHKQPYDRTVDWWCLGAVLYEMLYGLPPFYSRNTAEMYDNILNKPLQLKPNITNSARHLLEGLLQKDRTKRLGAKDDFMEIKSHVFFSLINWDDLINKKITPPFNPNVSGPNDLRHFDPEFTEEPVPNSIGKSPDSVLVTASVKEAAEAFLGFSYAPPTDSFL

Cc1c(-c2cc(Nc3cc4n(n3)CCN(C)C4)c(=O)[nH]n2)ccc(F)c1NC(=O)c1cc2ccccc2s1
inhibition [1]: -6.5% | inhibition [2]: 0.6% | inhibition [3]: 2.5% | inhibition [4]: 4.6% | inhibition [5]: 5.7% | inhibition [6]: 5% | inhibition [7]: 1.8% | inhibition [8]: -2.1% | inhibition [9]: 1.9% | inhibition [10]: -7% | Activity (Salmonella typhimurium [11]): Non-toxic | inhibition [12]: 6.2% | inhibition [13]: 2.7% | inhibition [14]: -7.6% | CLH (Liver microsome [15]): 6 mL/min/kg | inhibition [16]: -9% | pEC50 (Blood): 6.59 | inhibition [17]: 5.3% | inhibition [18]: -3.9% | CLH (Liver microsome [19]): 6 mL/min/kg | inhibition [20]: 6.2% | inhibition [21]: -4.8% | inhibition [22]: -5.4% | inhibition [23]: 10.8% | inhibition [24]: 14.1% | inhibition [25]: 1% | inhibition [26]: -0.7% | inhibition [27]: 4.5% | inhibition [28]: 11% | inhibition [29]: 0.8% | inhibition [30]: -7.7% | pEC50 (Monocyte): 7.43 | inhibition [31]: 20.1% | inhibition [32]: -2% | inhibition [33]: 7.8% | inhibition [34]: 1.5% | inhibition [35]: 50% | inhibition [36]: 2.8% | inhibition [37]: 4.7% | inhibition [38]: 4.5% | inhibition [39]: 7.2% | inhibition [40]: -3.8% | Activity (Salmonella typhimurium [41]): Non-toxic | inhibition [42]: 9.2% | pIC50 [43]: 5.99
